# Measurements published in patent US20160279135A1, “THERAPIES FOR TREATING MYELOPROLIFERATIVE DISORDERS” (Gilead Sciences, Inc., priority 2013, published 2016).
# “And” between values parts separate entries of the source, which are not always exact repeats. Equal entries are not always repeated. Where two headings read alike, the source gives them in different places.
# Tests used:
# p-AKT Ser473 = experiment: Western blot of AKT phosphorylation in BaF3/MPL cells; format: cell-based; conditions: 2 h, then TPO 50 ng/mL 10 min, vs vehicle
# Method: (§1) In addition, Compound B was examined for the effects on the PI3K signaling pathway by determining the levels of AKT and S6 phosphorylation with or without TPO activation. Two cell lines, BaF3/MPL and UT-7/TPO sensitive or responsive to TPO activation were used. The cells were starved (i.e. growing on medium having less FBS) in […] FBS/RPMI for two hours before treated with 0.1, 1.0, or 2.0 μM of Compound B or vehicle (0.1% DMSO in RPMI) for 2 hours at 37° C. To examine the TPO-activated phosphorylation, the cells were then treated or activated with 50 ng/mL of human recombinant TPO (Peprotech) for 10 minutes at 37° C. The TPO activation or treatment may reflect the conditions in diseased cells as the PI3K pathway is activated by TPO in myelofibrosis. After treating with compound and/or TPO, the cells were collected, lysed by lysis buffer (Cell Signaling), separated by SDS-PAGE, and analyzed by the Western blot using antibodies specific to p-AKT Ser473 or pS6 Ser235/236 (Cell Signaling). The phosphorylation levels in treated cells were calculated and compared to those of untreated cells (i.e. vehicle as negative control).
# pS6 Ser235/236 = experiment: Western blot of S6 phosphorylation in BaF3/MPL cells; format: cell-based; conditions: 2 h, then TPO 50 ng/mL 10 min, vs vehicle
# Method: as §1
# p-S6RP = experiment: flow cytometry of p-S6RP in TPO-stimulated CD34+ cells from MF patients on chronic ruxolitinib (Example 8); format: cell-based, human; conditions: for percentage of the p-S6RP levels: 2 h, then TPO 50 ng/mL, one value per patient, TPO vehicle = 100
# Method: (§2) In this study, PBMCs were isolated from the whole blood from five MF patients receiving chronic ruxolitinib treatment (rux 1-rux 5). The cells were treated with either vehicle, ruxolitinib, and/or Compound B for 2 hours then stimulated with TPO (50 ng/mL) for 10 minutes. Ruxolitinib at the dose of 1 or 20 nM and Compound B at the dose of 45, 200, or 700 nM were used.
# (§3) The treated cells were then fixed, permeabilized and stained for FACS analysis using FACSCalibur analyzed using BD FACSDiva software.
# p-STAT5 = experiment: flow cytometry of p-STAT5 in TPO-stimulated CD34+ cells from MF patients on chronic ruxolitinib (Example 8); format: cell-based, human; conditions: 2 h, then TPO 50 ng/mL, one value per patient, TPO vehicle = 100
# Method: as §2, §3
# Pfeiffer cells = experiment: CellTiter-Glo cell viability of Pfeiffer cells with IL6; format: cell-based; conditions: Homo sapiens, 96 h, n=4, read-out: percentage of viable Pfeiffer cells, AVG; for viability at […]: 74 nM Compound B; for viability at 0.2 µM: 200 nM Compound B; for viability at 0.421 µM: 421 nM Compound B
# Method: Next, Pfeiffer cells were treated with IL6 (0 or 3 ng/mL), Compound A (0, 136, 272, or 695 nM), and/or Compound B (0, 74, 200, or 421 nM) (n=4 per group) for 96 hours.
# Cellular viability was determined using the CellTiter-Glo Luminescent Cell Viability Assay (Promega). The percentage of viable cells was normalized to the groups that were not treated with Compound A or Compound B, and standard deviation was calculated.
# clinical = conditions: human, in vivo
# From the text: For in vitro or in vivo studies, the effect amount of Compounds A, B, C, D, E, or ruxolinitib may be adjusted according to the experimental condition. Similarly, the effect amount of Compounds D1, D2, D3, D4, D5, D6, D7, D8, D9, E1, E2, E3, E4, E5, E6, E7, E8, E9, or F, may be adjusted according to the experimental condition for in vitro or in vivo studies. For example, compounds may be used in the amount of 0.001, 0.002, 0.003, 0.004, 0.005, 0.006, 0.007, 0.008, 0.009, 0.01, 0.02, 0.03, 0.04, 0.05, 0.06, 0.07, 0.08, 0.09, 0.1, 0.2, 0.3, 0.4, 0.5, 0.6, 0.7, 0.8, 0.9, 1.0, 1.5, 2.0, 2.5, 3.0, 3.5, 4.0, 5.0, 6.0, 7.0, 8.0, 9.0, or 10.0 μM. In some studies, the in vitro doses of the compounds may be calculated to correspond to the clinical doses of the compounds. The calculation may consider various factors, such as protein binding and plasma concentration. […] It is understood that the in vitro doses may differ, depend on the assay condition and other calculation factors, and that the clinical doses may differ depend on the disease indication and the patient condition.
# as §2
# Next, Pfeiffer cells were treated with IL6 (0 or 3 ng/mL), Compound A (0, 136, 272, or 695 nM), and/or Compound B (0, 74, 200, or 421 nM) (n=4 per group) for 96 hours. The doses in this assay may correspond to those used in a clinical setting. […] In addition, the in-vitro dose of 136 nM Compound A may correspond to the potential Caverage detected in patients receiving Compound A at 300 mg once a day.
structure (smiles),measurement,setting,value
"CC[C@H](Nc1ncnc2[nH]cnc12)c1nc2cccc(F)c2c(=O)n1-c1ccccc1 [Compound B, (S)-2-(1-((9H-purin-6-yl)amino)propyl)-5-fluoro-3-phenylquinazolin-4(3H)-one]",reduced p-AKT levels,p-AKT Ser473; 0.1 μM,51%
same,reduced p-AKT levels,p-AKT Ser473; 1.0 μM,64%
same,reduced p-S6 levels,pS6 Ser235/236; 0.1 μM,24%
same,reduced p-S6 levels,pS6 Ser235/236; 1.0 μM,27%
same,reduced p-S6 levels,pS6 Ser235/236; 2.0 μM,41%
same,percentage of the p-S6RP levels,p-S6RP; Compound B 45 nM,82% and 58% and 49% and 74% and 36%
same,percentage of the p-S6RP levels,p-S6RP; Compound B 200 nM,62% and 46% and 38% and 63% and 33%
same,percentage of the p-S6RP levels,p-S6RP; Compound B 700 nM,46% and 48% and 32% and 55% and 17%
same,inhibition at 0.045 µM,"p-S6RP; Homo sapiens, Compound B 45 nM, TPO-stimulated cells vs vehicle, all five patients, read-out: p-S6RP levels decreased (inhibited) by",40%
same,inhibition at 0.2 µM,"p-S6RP; Homo sapiens, Compound B 200 nM, TPO-stimulated cells vs vehicle, all five patients, read-out: p-S6RP levels decreased (inhibited) by",52%
same,inhibition at 0.7 µM,"p-S6RP; Homo sapiens, Compound B 700 nM, TPO-stimulated cells vs vehicle, all five patients, read-out: p-S6RP levels decreased (inhibited) by",60%
same,percentage of the p-STAT5 levels,p-STAT5; Compound B 45 nM,92% (2×) and 85% and 95% and 83%
same,percentage of the p-STAT5 levels,p-STAT5; Compound B 200 nM,93% and 83% and 91% and 72% and 90%
same,percentage of the p-STAT5 levels,p-STAT5; Compound B 700 nM,88% and 86% and 82% and 106% and 78%
same,viability at […],Pfeiffer cells; IL6 0 ng/mL,72%
same,viability at […],Pfeiffer cells; IL6 3 ng/mL,95%
same,viability at 0.2 µM,Pfeiffer cells; IL6 0 ng/mL,63%
same,viability at 0.2 µM,Pfeiffer cells; IL6 3 ng/mL,91%
same,viability at 0.421 µM,Pfeiffer cells; IL6 0 ng/mL,54%
same,viability at 0.421 µM,Pfeiffer cells; IL6 3 ng/mL,83%
same,in-vitro dose corresponding to the potential Caverage,clinical,200 nM
same,in-vitro dose corresponding to the potential Cmin,clinical,74 nM
same,Cmax,clinical; 150 mg,421 nM
